From patent US20260125346A1, “Isoquinolinone Derivatives and 4H-Quinolizinone Derivatives and Pharmaceutical Compositions Thereof for the Treatment of Disease” (BeOne Medicines I GmbH, priority 2023, published 2026)

Experiments:
[1] = system: PI3Kα H1047R mutated cell line T-47D cells; experiment: Cell Proliferation Assay (CellTiter-Glo), T-47D; format: cell-based; conditions: for IC50: Homo sapiens, T47D, 72 h, T-47D, 3 days treatment; for Selectivity: SK-BR-3/T-47D (cell proliferation): cell proliferation IC50 ratio
Protocol: Cell Culture Maintenance. The T-47D (ATCC, HTB-133) cell line was obtained from the American Type Culture Collection. Cells were maintained in RPMI1640 medium (Gibco, REF #22400105) supplemented with 10% Fetal Bovine Serum (Gibco, REF #10091148). Cultures were maintained in a humidified incubator at 37° C. under 5% CO2/95% air.
Cell Proliferation Assay. PI3Kα H1047R mutated cell line T-47D cells and WT cell line SK-BR-3 were seeded at a density of 3×10^3 cells per well in 96 well plate (Xinyou Biotechnology, 062096) in 95 μL of culture medium, overnight. Compounds dissolved in 10 mM stock solutions in DMSO were serially diluted 1:3 in DMSO to generate a 9-point dilution series and plated using an INTEGRA ASSIST Plus pipetting robot. A 20× intermediate compound dilution plate in RPMI1640 medium (200 M starting compound concentration in 2% DMSO) was then prepared. Five μL of intermediate serially diluted compounds were added to the cell plate to final concentrations ranging from […] to 1 nM in 0.1% DMSO. 0.1% DMSO alone was used to establish the maximum signal and medium without cells was for minimum signal. After 3 days treatment, equilibrated the plate and its contents at room temperature for approximately 30 minutes. Added 30 μL CellTiter-Glo® Reagent (Promega, REF #G7571) to each well. Then mixed contents for 5 min on plate shaker to induce cell lysis. Incubated at room temperature for 10 minutes to stabilize luminescent signal. The plates were read on PHERAstar FSX Microplate reader using standard luminescence settings.
Relative IC50 values were determined using luminescence units by calculating percent inhibition with respect to the in-plate “MIN” (medium only) and “MAX” (0.1% DMSO) controls. The data were analyzed using a 4-parameter nonlinear logistic equation (four-parameter logistic concentration-response curve): Y=bottom+[(top−bottom)/1+(X/IC50) slope] • where Y=% inhibition, X=concentration of inhibitor, bottom=minimum value of y attained by curve-fit, top=maximum value of y attained by curve-fit and slope=steepness of curve at the IC50.

[2] = system: PI3Kα H1047R mutated cell line T-47D; experiment: Phospho-AKT (Ser473) Inhibition Assay (HTRF), T-47D; format: cell-based; conditions: for IC50: Homo sapiens, T47D, T-47D, 1 hour treatment, read-out: p-AKT Inhibition assay (S473) IC50 T-47D; for Selectivity: SK-BR-3/T-47D (p-AKT): p-AKT (S473) IC50 ratio
Summary of the method: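 Cells seeded overnight in insulin-supplemented MEM, then treated 1 h with 11-point 1:3 compound dilutions (10 μM to 0.1 nM final, 0.1% DMSO). Lysates assayed for phospho-AKT Ser473 by HTRF; IC50 from 4-parameter logistic fit, normalised to DMSO (max) and 10 μM GDC0077 (min).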

[3] = target: PI3Kα (p110/p85) kinase (wild type, "WT") (Homo sapiens, UniProt P42336); experiment: PI3Kα (p110/p85) kinase ADP-Glo Assay; format: biochemical; conditions: 25 uM ATP
PI3Kα (p110/p85) kinase (wild type, "WT"), sequence (P42336 whole entry): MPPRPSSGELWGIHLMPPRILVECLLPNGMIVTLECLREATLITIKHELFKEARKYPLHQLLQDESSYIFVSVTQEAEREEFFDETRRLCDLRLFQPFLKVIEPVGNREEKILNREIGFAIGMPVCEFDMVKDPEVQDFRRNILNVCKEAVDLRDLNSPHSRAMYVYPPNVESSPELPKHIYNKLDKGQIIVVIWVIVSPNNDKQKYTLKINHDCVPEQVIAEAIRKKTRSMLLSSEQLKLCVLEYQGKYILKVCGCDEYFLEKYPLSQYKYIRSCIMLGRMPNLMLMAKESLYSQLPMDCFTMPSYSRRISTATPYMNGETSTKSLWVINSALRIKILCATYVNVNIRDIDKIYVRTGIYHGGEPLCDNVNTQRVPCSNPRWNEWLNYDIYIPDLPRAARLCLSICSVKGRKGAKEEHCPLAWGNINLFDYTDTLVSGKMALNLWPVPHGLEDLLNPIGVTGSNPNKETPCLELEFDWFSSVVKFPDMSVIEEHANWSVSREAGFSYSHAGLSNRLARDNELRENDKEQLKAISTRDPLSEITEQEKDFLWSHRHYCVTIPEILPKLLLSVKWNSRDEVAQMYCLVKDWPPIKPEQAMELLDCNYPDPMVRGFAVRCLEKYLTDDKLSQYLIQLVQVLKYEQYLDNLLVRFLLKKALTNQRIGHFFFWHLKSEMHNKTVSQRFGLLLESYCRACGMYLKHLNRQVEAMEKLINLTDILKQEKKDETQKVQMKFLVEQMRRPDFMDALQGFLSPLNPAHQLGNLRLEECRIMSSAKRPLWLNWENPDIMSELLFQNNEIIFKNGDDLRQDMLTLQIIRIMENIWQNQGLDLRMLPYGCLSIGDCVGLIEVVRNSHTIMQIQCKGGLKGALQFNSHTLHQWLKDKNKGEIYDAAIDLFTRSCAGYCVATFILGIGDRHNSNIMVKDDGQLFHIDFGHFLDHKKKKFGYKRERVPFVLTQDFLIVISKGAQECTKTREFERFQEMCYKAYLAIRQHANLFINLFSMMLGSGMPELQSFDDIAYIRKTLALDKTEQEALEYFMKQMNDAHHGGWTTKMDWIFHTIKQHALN
PI3Kα (p110/p85) kinase (wild type, "WT"), sequence (P27986 whole entry partner): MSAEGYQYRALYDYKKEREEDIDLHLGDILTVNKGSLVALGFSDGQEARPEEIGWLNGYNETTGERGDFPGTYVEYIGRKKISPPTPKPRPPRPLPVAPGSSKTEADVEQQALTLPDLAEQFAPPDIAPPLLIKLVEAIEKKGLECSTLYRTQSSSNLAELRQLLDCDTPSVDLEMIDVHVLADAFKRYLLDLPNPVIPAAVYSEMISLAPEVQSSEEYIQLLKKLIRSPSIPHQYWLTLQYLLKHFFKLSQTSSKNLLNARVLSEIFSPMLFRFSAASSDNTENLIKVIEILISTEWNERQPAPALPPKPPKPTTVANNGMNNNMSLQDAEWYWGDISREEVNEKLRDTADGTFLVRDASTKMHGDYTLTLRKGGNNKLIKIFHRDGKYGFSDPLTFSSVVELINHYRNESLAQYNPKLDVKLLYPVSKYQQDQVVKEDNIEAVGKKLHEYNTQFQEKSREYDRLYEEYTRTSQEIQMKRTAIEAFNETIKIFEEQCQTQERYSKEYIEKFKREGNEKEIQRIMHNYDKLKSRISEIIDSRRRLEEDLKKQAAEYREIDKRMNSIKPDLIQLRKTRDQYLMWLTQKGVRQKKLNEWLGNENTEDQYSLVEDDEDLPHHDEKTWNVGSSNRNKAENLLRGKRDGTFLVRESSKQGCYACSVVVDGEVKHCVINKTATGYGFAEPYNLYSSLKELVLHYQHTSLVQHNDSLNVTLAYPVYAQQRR
Summary of the method: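 Wild-type PI3Kα p110/p85 preincubated 30 min at RT with PI(4,5)P2:PS substrate ([…]) and compound ([…]) in HEPES pH7.5 buffer with MgCl2, DTT and BSA; reaction started with 25 µM ATP for 120 min at RT. ADP measured by ADP-Glo luminescence; IC50 from four-parameter logistic fit.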

Structure (SMILES)	IC50 [1] [nM]	Selectivity: SK-BR-3/T-47D (cell proliferation) [1]	IC50 [2] [nM]	Selectivity: SK-BR-3/T-47D (p-AKT) [2]	IC50 [3] [nM]
Cc1cc(C(C)Nc2ccccc2C(=O)O)c2cc(/C=C/c3ccccc3)n(C)c(=O)c2c1 (centres unmarked) [Example 44, (E)-2-((1-(2,7-dimethyl-1-oxo-3-styryl-1,2-dihydroisoquinolin-5-yl)ethyl)amino)benzoic acid]	4770	>2.1	560	3.8	1840
Cc1cc(C(C)Nc2ccccc2C(=O)O)c2cc(-c3ccc(C(F)(F)F)nc3)n(C)c(=O)c2c1 (centres unmarked) [Example 86, 2-((1-(2,7-dimethyl-1-oxo-3-(6-(trifluoromethyl)pyridin-3-yl)-1,2-dihydroisoquinolin-5-yl)ethyl)amino)benzoic acid]	375	>26.6	372	>27	15100
Cc1cc(C(C)Nc2ccccc2C(=O)O)c2cc(-c3ccccc3C#N)n(C)c(=O)c2c1 (centres unmarked) [Example 32, 2-((1-(3-(2-cyanophenyl)-2,7-dimethyl-1-oxo-1,2-dihydroisoquinolin-5-yl)ethyl)amino)benzoic acid]	2460	>4.07	264	>38	61100
Cc1cc(C(C)Nc2ccccc2C(=O)O)c2cc(-c3ccc4c(c3)CN(C)C4=O)n(C)c(=O)c2c1 (centres unmarked) [Example 70, 2-((1-(2,7-dimethyl-3-(2-methyl-1-oxoisoindolin-5-yl)-1-oxo-1,2-dihydroisoquinolin-5-yl)ethyl)amino)benzoic acid]	245	>41	1100	>9.11	21100
Cc1cc([C@@H](C)Nc2ccccc2C(=O)O)c2cc(-c3ccc(-c4cnn(C)c4)cc3)n(C)c(=O)c2c1 [Example 40, (R)-2-((1-(2,7-dimethyl-3-(4-(1-methyl-1H-pyrazol-4-yl)phenyl)-1-oxo-1,2-dihydroisoquinolin-5-yl)ethyl)amino)benzoic acid]	52.7	>190	24.3	33.5	5120
Cc1cc(C(C)Nc2ccccc2C(=O)O)c2cc(-c3ccc(C4(O)CCOCC4)cc3)n(C)c(=O)c2c1 (centres unmarked) [Example 73, 2-((1-(3-(4-(4-hydroxytetrahydro-2H-pyran-4-yl)phenyl)-2,7-dimethyl-1-oxo-1,2-dihydroisoquinolin-5-yl)ethyl)amino)benzoic acid]	171	>59	924	>10.82	26100
Cc1cc(C(C)Nc2c(C(=O)O)sc3ccccc23)c2cc(-c3ccccc3)n(C)c(=O)c2c1 (centres unmarked) [Example 48, 3-((1-(2,7-dimethyl-1-oxo-3-phenyl-1,2-dihydroisoquinolin-5-yl)ethyl)amino)benzo[b]thiophene-2-carboxylic acid]	> 10000		632	6.0	5160
Cc1cc(C(C)Nc2ccccc2C(=O)O)c2cc(-c3ccn(-c4ccccc4)c3)n(C)c(=O)c2c1 (centres unmarked) [Example 77, 2-((1-(2,7-dimethyl-1-oxo-3-(1-phenyl-1H-pyrrol-3-yl)-1,2-dihydroisoquinolin-5-yl)ethyl)amino)benzoic acid]	1400	>7.1	84.3	24.2	6950
Cc1cc(C(C)Nc2ccccc2C(=O)O)c2cc(-c3cnn(CC45CC6C[C@H](C4)C[C@H](C6)C5)c3C)n(C)c(=O)c2c1 (stereo partly drawn) [Example 87, 2-((1-(3-(1-(((3S,5S)-adamantan-1-yl)methyl)-5-methyl-1H-pyrazol-4-yl)-2,7-dimethyl-1-oxo-1,2-dihydroisoquinolin-5-yl)ethyl)amino)benzoic acid]	890	>11.2	432	6.6	35400
Cc1cc(C(C)Nc2ccccc2C(=O)O)c2cc(-c3cccc(C#N)c3)n(C)c(=O)c2c1 (centres unmarked) [Example 3, 2-((1-(3-(3-cyanophenyl)-2,7-dimethyl-1-oxo-1,2-dihydroisoquinolin-5-yl)ethyl)amino)benzoic acid]	143	>70	168	26.0	9850
Cc1cc(C(C)Nc2ccccc2C(=O)O)c2cc(-c3ccc(N4CCC(C)(O)CC4)nc3)n(C)c(=O)c2c1 (centres unmarked) [Example 72, 2-((1-(3-(6-(4-hydroxy-4-methylpiperidin-1-yl)pyridin-3-yl)-2,7-dimethyl-1-oxo-1,2-dihydroisoquinolin-5-yl)ethyl)amino)benzoic acid]	175	>57	633	>15.79	20500
Cc1cc([C@@H](C)Nc2ccccc2C(=O)O)c2cc(-c3ccccc3)n(C)c(=O)c2c1 [Example 30, (R)-2-((1-(2,7-dimethyl-1-oxo-3-phenyl-1,2-dihydroisoquinolin-5-yl)ethyl)amino)benzoic acid]	177	>57	22	113.7	2500
Cc1cc([C@@H](C)Nc2ccccc2C(=O)O)c2cc(-c3ccc(F)cc3)n(C)c(=O)c2c1 [Example 34, (R)-2-((1-(3-(4-fluorophenyl)-2,7-dimethyl-1-oxo-1,2-dihydroisoquinolin-5-yl)ethyl)amino)benzoic acid]	175	>57	20.2	>494	4180
Cc1cc(C(C)Nc2ccccc2C(=O)O)c2cc(-c3cnn(-c4ccc(C(N)=O)cn4)c3)n(C)c(=O)c2c1 (centres unmarked) [Example 16, 2-((1-(3-(1-(5-carbamoylpyridin-2-yl)-1H-pyrazol-4-yl)-2,7-dimethyl-1-oxo-1,2-dihydroisoquinolin-5-yl)ethyl)amino)benzoic acid]	591	>17	1580	>6.3	3670
Cc1cc(C(C)Nc2ccccc2C(=O)O)c2cc(-c3ccc(-c4cnn(C)c4)cc3)n(C)c(=O)c2c1 (centres unmarked) [Example 23, 2-((1-(2,7-dimethyl-3-(4-(1-methyl-1H-pyrazol-4-yl)phenyl)-1-oxo-1,2-dihydroisoquinolin-5-yl)ethyl)amino)benzoic acid]	147	>68	103	16.6	2030
COc1ccc(-c2cc3c(C(C)Nc4ccccc4C(=O)O)cc(C)cc3c(=O)n2C)cn1 (centres unmarked) [Example 15, 2-((1-(3-(6-methoxypyridin-3-yl)-2,7-dimethyl-1-oxo-1,2-dihydroisoquinolin-5-yl)ethyl)amino)benzoic acid]	112	>89	217	38.5	6860
Cc1cc(C(C)Nc2ccccc2C(=O)O)c2cc(-c3ccc(F)c(F)c3)n(C)c(=O)c2c1 (centres unmarked) [Example 9, 2-((1-(3-(3,4-difluorophenyl)-2,7-dimethyl-1-oxo-1,2-dihydroisoquinolin-5-yl)ethyl)amino)benzoic acid]	143	>70	70.9	51.4	2710
Cc1cc(C(C)Nc2ccccc2C(=O)O)c2cc(-c3ccc(C(C)(C)O)cc3)n(C)c(=O)c2c1 (centres unmarked) [Example 51, 2-((1-(3-(4-(2-hydroxypropan-2-yl)phenyl)-2,7-dimethyl-1-oxo-1,2-dihydroisoquinolin-5-yl)ethyl)amino)benzoic acid]	94.5	>106	167	38.7	10400
